Data from patent US20170315129A1, “CANCER CELL DETECTION METHOD USING LIVING BODY-DERIVED CELLS OF BIOLOGICAL ORIGIN” (Hirosaki University, priority 2014, published 2017).

System: ascites cells obtained during an operation of a patient with ovarian cancer (serous adenocarcinoma)
Experiment: Live-cell fluorescence imaging of cells in peritoneal washing, ovarian cancer patient (Example 1)
Format: cell-based, human
Settings: 100 μM 2-NBDLG and 20 μM 2TRLG in KRB, 5 minutes 37° C., FIG. 2B
Protocol: Immediately after the start of laparotomy for ovarian cancer (serous adenocarcinoma), the peritoneal cavity was washed with physiological saline for the purpose of collecting an ascitic fluid. A surplus portion of the resulting peritoneal washing was transferred into a 50 mL centrifuge tube. Subsequently, it was centrifuged at 1500 G for 2 minutes at room temperature, the supernatant was removed by decantation, and the pellet was dispersed by adding 2 mL of Krebs Ringer Buffer (KRB solution, see below) to obtain an ascites-cell suspension.
NaCl 129.0 mM, KCl 4.75 mM, KH2PO41.19 mM, MgSO4.7H2O 1.19 mM, CaC12.2H2O 1.0 mM, NaHCO35.02 mM, D-Glucose 5.6 mM, HEPES 10.0 mM (an adequate amount of 1M NaOH was added to adjust the pH to 7.35). […]
For fluorescence observation, observation and image acquisition were performed as follows after mounting the glass pate on a glass-slide holder dedicated for an all-in-one fluorescence microscope BZ-X700 (Keyence Corporation). […] Bright field images and fluorescence images of the target cells were taken at a high magnification of 40× or 100×. Commercially available filters for BZ-X700 were used for fluorescence detection. A GFP filter for BZ-X (green channel, OP-87763, Ex 470/40 nm, Em 525/50 nm, DM 495 nm) was used for fluorescence observation of 2-NBDLG. […]

`O=C[C@@H](Nc1ccc([N+](=O)[O-])c2nonc12)[C@H](O)[C@@H](O)[C@@H](O)CO` [2-NBDLG, 2-[N-(7-nitrobenz-2-oxa-1,3-diazole-4-yl)amino]-2-deoxy-L-glucose] was tested. Which “fluorescence from 2-NBDLG (green wavelength region)” value (apparent peritoneal mesothelial cells) did it give?
Its value is “do not show fluorescence”.

What about the “fluorescence from 2-NBDLG (green wavelength region)” value (morphologically suspected cancer cells) of the same compound?
Its value is “intense fluorescence”.
